Measured values from article PMC12064818, “A general assay platform to study protein pharmacology using ligand-dependent structural dynamics” (Nature Communications, 2025).
Values joined by “and” are separate entries in the source; they are usually repeats but may differ in a detail not shown here. Identical values can stand only once. Like-named read-outs stand apart in the source and are kept apart here.

Assays:
[1] = molecular target: T1, E. coli Lig-N-HiBiT (DNA ligase) (Escherichia coli, UniProt P15042); test: biochemical
[2] = molecular target: T1, E. coli Lig-N-HiBiT (DNA ligase); settings: for SDR assay data: 0.5 nM E. coli Lig-N-HiBiT; for SDR assay data / SDR response: Log [ATP]; for SDR response: replicates
[3] = molecular target: B. malayi iPGM-C-HiBiT (Brugia malayi, UniProt Q4VWF8); settings: B. malayi iPGM-C-HiBiT SDR 0.5 nM; ligand […] SDR
[4] = molecular target: iPGM; settings: surface plasmon resonance kinetics; cited from earlier work
[5] = molecular target: C. elegans iPGM-C-HiBiT (Caenorhabditis elegans, UniProt G5EFZ1); test: C. elegans iPGM fluorescent polarization competition-binding assay (Ce-2d-FL probe); parameters: cDNA, containing Phe2-Ile539 and the 6xHis tag; His6 (C); made in house; host or cells: E. coli
Procedure: All reagents were prepared on ice, protected from light. […] Compounds and controls were added with a pintool to each plate as described in Supplementary Data 8. Assay plates were incubated for 20 min at ambient temperature. […] Microtiter plates were allowed to reach equilibrium (30 min incubation at ambient temperature) while protected from light. Fluorescence polarization was measured with the same reader settings as above. Data were row-wise normalized to no enzyme control as -100% activity and enzyme + DMSO vehicle control as neutral control. See Supplementary Table 7 for additional details.
Supplementary Table 7. Protocol for Co- factor independent phosphoglycerate mutase (iPGM) fluorescent polarization competition-biding assay
Supplementary Table 7: Protocol for C. elegans co-factor independent phosphoglycerate m utase (iPGM) fluorescent polarization com petition-binding assay
Sequence Param eter Value Description
No enzym e control (colum n 1) and enzym e solution (10 nM Ce iPGM-C-HiBiT dialyzed 1 Reagent 4 µLagainst Zn/Mn final assay concentration) in assay buffer + 0.05% IGEPAL; black/solid bottom , m edium bind, high base plates (Greiner), dispensed with BioRaptr 2 […]
Test com pounds: m acrocyclic peptides at 5 m M stock concentration in 16- pt, 1:3 titration […]
com pounds transferred to respective colum ns with Pintool
3 Incubation 20 m in Incubate enzym e + com pounds at am bient tem p for 20 m in, protected from light 4 Pre-Read Spark Measure fluorescence polarization of fluorescein (X480, M535) on Spark m ultimode m icroplate reader […]
dispensed with BioRaptr 2
6 Incubation 30 m in Am bient tem perature, protected from light
7 Detector Spark Measure fluorescence polarization of fluorescein (X480, M535) on Spark m ultimode m icroplate reader
Assay buffer: 30 m M Tris-HCl, pH 8.0; 5 m M MgSO4; 20 m M KCl; 0.05% IGEPAL. All solutions filtered through 0.22 1 µm syringe filter prior to dispense.
Measure fluorescence polarization of fluorescein on Spark m ultimode m icroplate reader with FP protocol: Excitation […]
4/7 20.0; G-Factor “Manual” = 1.000; Blank “Not Defined”.
Advanced Settings: Flashes = 30; Gain “Optim al”; Mirror “Autom atic”; Z-position [um ] “Manual” = 20000; Settle Tim e […]
Fluorescence polarization ligand solution: 30 m M Tris-HCl, pH 8.0; 5 m M MgSO4; 20 m M KCl; 0.05% IGEPAL; 15 […]
Solution filtered through 0.22
µm syringe filter prior to dispense.

[6] = molecular target: FLuc-N-HiBiT (firefly luciferase) (Photinus pyralis, UniProt P08659, form not given/L550V); test: SDR assay, FLuc-N-HiBiT; settings: for 10 nM FLuc-N-HiBiT + 10 mM ATP, Mean / 10 nM FLuc-N-HiBiT No ATP, Mean: Log [PTC124]
[7] = E. coli Lig-N-HiBiT (0.5 nM), ligand 100 µM
[8] = C. elegans iPGM-C-HiBiT FP 10 nM, ligand […] FP

Sequence of C. elegans iPGM-C-HiBiT (G5EFZ1 2-539): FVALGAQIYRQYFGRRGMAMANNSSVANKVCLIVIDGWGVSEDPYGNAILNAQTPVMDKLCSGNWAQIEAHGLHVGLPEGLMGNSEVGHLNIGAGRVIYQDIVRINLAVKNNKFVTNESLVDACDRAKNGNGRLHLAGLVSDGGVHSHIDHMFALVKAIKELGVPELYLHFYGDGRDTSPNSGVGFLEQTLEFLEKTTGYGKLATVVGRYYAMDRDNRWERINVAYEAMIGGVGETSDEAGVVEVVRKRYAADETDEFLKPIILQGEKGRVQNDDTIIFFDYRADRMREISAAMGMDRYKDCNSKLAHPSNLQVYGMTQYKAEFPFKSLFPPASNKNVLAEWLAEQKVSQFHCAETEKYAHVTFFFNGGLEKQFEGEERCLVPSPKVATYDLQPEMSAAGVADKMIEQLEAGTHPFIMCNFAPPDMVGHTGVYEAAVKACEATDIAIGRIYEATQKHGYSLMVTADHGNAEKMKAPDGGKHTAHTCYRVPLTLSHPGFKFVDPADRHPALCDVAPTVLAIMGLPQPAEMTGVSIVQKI
Sequence of FLuc-N-HiBiT (firefly luciferase) (P08659 2-550 L550V, form open): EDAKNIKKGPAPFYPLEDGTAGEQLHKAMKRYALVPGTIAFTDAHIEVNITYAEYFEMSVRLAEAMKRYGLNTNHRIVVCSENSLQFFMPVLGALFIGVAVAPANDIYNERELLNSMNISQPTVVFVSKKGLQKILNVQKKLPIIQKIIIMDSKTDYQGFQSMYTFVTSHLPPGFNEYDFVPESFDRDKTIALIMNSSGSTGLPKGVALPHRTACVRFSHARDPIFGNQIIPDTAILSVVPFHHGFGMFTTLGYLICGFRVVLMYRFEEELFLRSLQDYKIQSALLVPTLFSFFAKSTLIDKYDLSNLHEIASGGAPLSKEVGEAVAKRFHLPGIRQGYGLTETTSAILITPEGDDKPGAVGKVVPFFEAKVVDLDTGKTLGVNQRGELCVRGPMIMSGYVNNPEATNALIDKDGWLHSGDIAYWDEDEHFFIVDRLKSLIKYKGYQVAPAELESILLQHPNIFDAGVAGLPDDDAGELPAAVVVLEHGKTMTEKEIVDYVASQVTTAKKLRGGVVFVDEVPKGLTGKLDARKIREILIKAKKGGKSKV
Sequence of B. malayi iPGM-C-HiBiT (Q4VWF8 2-515): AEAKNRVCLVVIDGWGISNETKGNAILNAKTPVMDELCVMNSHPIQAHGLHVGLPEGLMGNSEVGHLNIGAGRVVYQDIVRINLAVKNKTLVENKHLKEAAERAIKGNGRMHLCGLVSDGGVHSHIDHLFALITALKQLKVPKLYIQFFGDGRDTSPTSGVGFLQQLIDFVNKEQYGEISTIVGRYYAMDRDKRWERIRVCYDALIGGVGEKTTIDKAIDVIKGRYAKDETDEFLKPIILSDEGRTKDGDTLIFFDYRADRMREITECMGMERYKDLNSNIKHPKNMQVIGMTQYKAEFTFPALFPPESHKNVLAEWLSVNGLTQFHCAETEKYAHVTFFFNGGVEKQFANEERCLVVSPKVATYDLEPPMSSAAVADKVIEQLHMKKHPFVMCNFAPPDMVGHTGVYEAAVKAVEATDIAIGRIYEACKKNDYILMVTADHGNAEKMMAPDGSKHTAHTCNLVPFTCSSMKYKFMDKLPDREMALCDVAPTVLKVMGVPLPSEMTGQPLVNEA
T1 sequence (P15042 2-671): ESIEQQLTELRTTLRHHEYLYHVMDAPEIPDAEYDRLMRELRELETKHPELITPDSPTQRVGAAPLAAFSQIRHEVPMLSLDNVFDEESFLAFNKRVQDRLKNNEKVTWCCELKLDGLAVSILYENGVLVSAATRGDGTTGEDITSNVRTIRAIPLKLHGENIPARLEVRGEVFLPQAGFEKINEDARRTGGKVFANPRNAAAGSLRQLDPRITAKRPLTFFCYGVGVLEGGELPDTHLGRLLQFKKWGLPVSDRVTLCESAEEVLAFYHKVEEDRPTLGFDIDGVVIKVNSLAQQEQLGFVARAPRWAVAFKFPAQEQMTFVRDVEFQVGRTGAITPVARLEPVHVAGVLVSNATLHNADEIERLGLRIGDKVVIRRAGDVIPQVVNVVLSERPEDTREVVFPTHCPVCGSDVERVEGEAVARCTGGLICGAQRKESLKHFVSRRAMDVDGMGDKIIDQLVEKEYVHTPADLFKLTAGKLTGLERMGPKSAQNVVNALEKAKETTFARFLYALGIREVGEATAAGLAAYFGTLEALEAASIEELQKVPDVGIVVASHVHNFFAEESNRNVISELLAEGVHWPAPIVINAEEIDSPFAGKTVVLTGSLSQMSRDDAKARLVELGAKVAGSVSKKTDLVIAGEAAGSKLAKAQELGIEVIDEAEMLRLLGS

With Nc1ncnc2c1ncn2[C@@H]1O[C@H](COP(=O)(O)OP(=O)(O)OP(=O)(O)O)[C@@H](O)[C@H]1O [ATP] the EC50 [1] was ≥ 100000 nM, the SDR assay data ([2]; M -2.85) was 49.3 and 51.1 and 44.4 and the SDR assay data ([2]; M -3.15) was 28.9 and 34.6 and 36.9. For the same molecule, the SDR assay data ([2]; M -3.45) was 8.9 and 17.7 and 9.6, the “SDR assay response (in words)” value ([2]; E. coli Lig-N-HiBiT) was “weak though reproducible SDR output” and the “SDR assay statistics Ave RLU” value [2, 7] was 315.5 RLU. For the same molecule, the “SDR assay statistics S:B” value [2, 7] was 1.1, the “SDR assay statistics S:N” value [2, 7] was 0.6 and the “SDR assay statistics Z’” value [2, 7] was -6.013. The max resp ([2]; E. coli Lig-N-HiBiT, maximum response) was 48.3, the SDR response ([2]; M -2.85) was 49.3 and 51.1 and 44.4 and the SDR response ([2]; M -3.15) was 28.9 and 34.6 and 36.9. The SDR response ([2]; M -3.45) was 8.9 and 17.7 and 9.6, the SDR response ([2]; M -3.75) was 3.6 and 9.8 and 15.1 and the SDR response ([2]; M -4.05) was 1.5 and 7.7 and 15.7. For the same molecule, the SDR response ([2]; M -4.35) was 0.051 and 11.3 and 4.7, the SDR response ([2]; M -4.65) was 0.8 and 3.9 and 8.7 and the SDR response ([2]; M -4.95) was -0.949 and 1.5 and 6.8. The SDR response ([2]; M -5.25) was -4.0 and 5.1 and 9.7, the SDR response ([2]; M -5.55) was -8.9 and 4.7 and 2.7 and the SDR response ([2]; M -5.86) was -3.0 and -2.8 and 4.9. For the same molecule, the SDR response ([2]; M -6.16) was -9.9 and -0.326, the SDR response ([2]; M -6.46) was -6.9 and 3.7 and the SDR response ([2]; M -6.76) was -8.7 and 1.0 and 4.2.

In the case of CC(C)C[C@H](NC(=O)[C@H](Cc1ccc(O)cc1)NC(=O)[C@@H]1CSCC(=O)N[C@H](Cc2ccc(O)cc2)C(=O)N[C@@H](CC(=O)O)C(=O)N[C@@H](Cc2ccc(O)cc2)C(=O)N2CCC[C@H]2C(=O)NCC(=O)N[C@@H](CC(=O)O)C(=O)N[C@@H](Cc2ccc(O)cc2)C(=O)N1)C(=O)N[C@@H](Cc1ccc(O)cc1)C(=O)NCC(=O)N[C@H](C(=O)N[C@@H](CS)C(=O)NCC(N)=O)[C@@H](C)O [Ce-2], the “SDR assay statistics Ave RLU” value [3] is reported as 552.2 RLU, the “SDR assay statistics S:B” value [3] is reported as 1.8 and the “SDR assay statistics S:N” value [3] is reported as 14.4. For the same molecule, the “SDR assay statistics Z’” value [3] was 0.702, the Kd [4] was 0.038 nM and the IC50 [5] was 34.7 nM. The “Standard assay statistics Ave RLU” value [5, 8] was 67.8 RLU, the “Standard assay statistics S:B” value [5, 8] was 1.4 and the “Standard assay statistics S:N” value [5, 8] was -2.4. For the same molecule, the “Standard assay statistics Z’” value [5, 8] was -0.978.

For O=C(O)c1cccc(-c2noc(-c3ccccc3F)n2)c1 [PTC124, reference compound], the “pSDR50, FLuc-N-HiBiT (10 nM)” value ([6]; 0 μM ATP) was 6.64 ± 0.05, the “pSDR50, FLuc-N-HiBiT (10 nM)” value ([6]; 10 μM ATP) was 8.07 ± 0.05 and the “10 nM FLuc-N-HiBiT + 10 mM ATP, Mean” value ([6]; M (SDR) -4.48) was 41609.1 RLU. The “10 nM FLuc-N-HiBiT No ATP, Mean” value ([6]; M (SDR) -4.48) was 44446.2 RLU, the “10 nM FLuc-N-HiBiT + 10 mM ATP, Mean” value ([6]; M (SDR) -4.96) was 42409.7 RLU and the “10 nM FLuc-N-HiBiT No ATP, Mean” value ([6]; M (SDR) -4.96) was 44381.0 RLU. For the same molecule, the “10 nM FLuc-N-HiBiT + 10 mM ATP, Mean” value ([6]; M (SDR) -5.44) was 42866.9 RLU, the “10 nM FLuc-N-HiBiT No ATP, Mean” value ([6]; M (SDR) -5.44) was 43085.6 RLU and the “10 nM FLuc-N-HiBiT + 10 mM ATP, Mean” value ([6]; M (SDR) -5.91) was 43432.3 RLU. For the same molecule, the “10 nM FLuc-N-HiBiT No ATP, Mean” value ([6]; M (SDR) -5.91) was 42891.6 RLU, the “10 nM FLuc-N-HiBiT + 10 mM ATP, Mean” value ([6]; M (SDR) -6.39) was 43449.2 RLU and the “10 nM FLuc-N-HiBiT No ATP, Mean” value ([6]; M (SDR) -6.39) was 36744.1 RLU. For the same molecule, the “10 nM FLuc-N-HiBiT + 10 mM ATP, Mean” value ([6]; M (SDR) -6.87) was 43724.9 RLU, the “10 nM FLuc-N-HiBiT No ATP, Mean” value ([6]; M (SDR) -6.87) was 28974.8 RLU and the “10 nM FLuc-N-HiBiT + 10 mM ATP, Mean” value ([6]; M (SDR) -7.35) was 42289.0 RLU. The “10 nM FLuc-N-HiBiT No ATP, Mean” value ([6]; M (SDR) -7.35) was 26642.9 RLU, the “10 nM FLuc-N-HiBiT + 10 mM ATP, Mean” value ([6]; M (SDR) -7.82) was 38396.4 RLU and the “10 nM FLuc-N-HiBiT No ATP, Mean” value ([6]; M (SDR) -7.82) was 23375.2 RLU. The “10 nM FLuc-N-HiBiT + 10 mM ATP, Mean” value ([6]; M (SDR) -8.30) was 32370.1 RLU, the “10 nM FLuc-N-HiBiT No ATP, Mean” value ([6]; M (SDR) -8.30) was 21721.8 RLU and the “10 nM FLuc-N-HiBiT + 10 mM ATP, Mean” value ([6]; M (SDR) -8.78) was 29426.2 RLU. The “10 nM FLuc-N-HiBiT No ATP, Mean” value ([6]; M (SDR) -8.78) was 22027.4 RLU, the “10 nM FLuc-N-HiBiT + 10 mM ATP, Mean” value ([6]; M (SDR) -9.25) was 28882.5 RLU and the “10 nM FLuc-N-HiBiT No ATP, Mean” value ([6]; M (SDR) -9.25) was 22062.2 RLU. The “10 nM FLuc-N-HiBiT + 10 mM ATP, Mean” value ([6]; M (SDR) -9.73) was 28374.1 RLU, the “10 nM FLuc-N-HiBiT No ATP, Mean” value ([6]; M (SDR) -9.73) was 21924.6 RLU and the “10 nM FLuc-N-HiBiT + 10 mM ATP, Mean” value ([6]; M (SDR) -10.21) was 28052.8 RLU. For the same molecule, the “10 nM FLuc-N-HiBiT No ATP, Mean” value ([6]; M (SDR) -10.21) was 22527.7 RLU, the “10 nM FLuc-N-HiBiT + 10 mM ATP, Mean” value ([6]; M (SDR) -10.69) was 27509.0 RLU and the “10 nM FLuc-N-HiBiT No ATP, Mean” value ([6]; M (SDR) -10.69) was 22231.2 RLU. The “10 nM FLuc-N-HiBiT + 10 mM ATP, Mean” value ([6]; M (SDR) -11.16) was 27726.0 RLU, the “10 nM FLuc-N-HiBiT No ATP, Mean” value ([6]; M (SDR) -11.16) was 21138.2 RLU and the “10 nM FLuc-N-HiBiT + 10 mM ATP, Mean” value ([6]; M (SDR) -11.64) was 27670.3 RLU. The “10 nM FLuc-N-HiBiT No ATP, Mean” value ([6]; M (SDR) -11.64) was 21494.9 RLU.
